# Target: T1, Motilin Receptor (Homo sapiens, UniProt O43193)
# T1 construct: host or cells: Ca2+ optimized hematopoietic cell lines (rat)
# Test: Ca2+ assay (FLIPR) for the GPCR motilin receptor, agonist and antagonist mode
# Assay type: cell-based
# Details: antagonist mode, at 10 μM
# Experimental: Ca^2+ Assays for the GPCRs Motilin Receptor, Prostaglandin F (FP) Receptor, 5-hydroxytryptamine 2B (5-HT2B) Receptor, and Purinoreceptor P2Y1
# Assays were performed using on a FLIPR^TETRA fluorometric imaging plate reader (Molecular Devices) with ScreenWorks Version 2 (Molecular Devices) as device operating and data analysis software.
# Dose dependent agonist and antagonist activities were determined. Percentage activation and percentage inhibition values were determined.
# Percentage activation was determined upon initial addition of the sample compounds followed by 10 minutes incubation at 25° C. Following compound incubation, reference agonists were added at EC80 to determine percentage inhibition.
# Reference agonists were purchased from reputable commercial vendors and prepared according to each ligand's specifications. All handling of ligands were done to ensure proper control throughout the experiments.
# Example compounds were weighed on a Microbalance (Mettler MX5) and dissolved in 100% DMSO to a final concentration of 2.5 mM and subsequently diluted into the assay buffer.
# The Assay buffer was a supplemented HBSS (Hank's Balanced Salt Solution). HBSS was supplemented with 20 mM HEPES (4-(2-hydroxyethyl)-piperazin-1-ethansulfonic acid) and 2.5 mM Probenecid (Sigma P8761).
# GPCR assays were performed using Ca^2+ optimized hematopoietic cell lines (rat) with cultures never exceeding 90% confluency. […] After seeding, the assay plates were incubated for forty-five (45) minutes at room temperature. After room temperature incubation, the assay plates were incubated at 37° C. 5% CO2 for 24 hours prior to assaying.
# All GPCR assays were performed using Fluo-8 Ca^2+ dye. Ca^2+ dye was prepared at 1× dye concentration in GPCR assay buffer. After 24 hours of incubation, cells were washed with GPCR assay buffer, and then Ca^2+-dye (100 μL/well) was added.
# The plates were incubated for 90 minutes at 30° C. 5% CO2 prior to FLIPR assay.
# Compound plates were prepared to add 50 μL/well during the agonist assay mode. During the FLIPR assay, 50 μL/well from the compound plate was diluted 3-fold into the existing 100 μL/well from the dye loading step. Therefore all compounds were prepared as 3× the final concentration desired in the assay.
# After completion of the first single addition assay run, assay plate was removed from the FLIPR Tetra and placed at 25° C. for seven (7) minutes before antagonist assay.
# Using the EC80 values determined during the agonist assay, all pre-incubated sample compound and reference antagonist (if applicable) wells were stimulated at the EC80 of the reference agonist. As reference ligands for the first three assays their obvious natural ligands motilin, prostaglandin F2α, and serotonin (5-HT, 5-Hydroxytryptamine) were used; and for the P2Y1 assay 2MeSATP (2-methyl-thio-adeno-sine 5′-triphosphate, i.e. (2R,3S,4R)-5-(6-amino-2-methylsulfanyl-purin-9-yl)-3,4-dihydroxy-tetrahydrofuran-2-yl]methyl (hydroxy-phosphonooxy-phosphoryl)hydrogen phosphate) was applied.
# After the addition of the reference agonist fluorescence was monitored for 180 sec using FLIPR Tetra.
# Data Analysis and Results:
# From the FLIPR data, with negative control correction enabled, the maximum statistic for each well was exported and percentage activation relative to Emax control was calculated.
# T1 sequence (O43193 whole entry, species assumed): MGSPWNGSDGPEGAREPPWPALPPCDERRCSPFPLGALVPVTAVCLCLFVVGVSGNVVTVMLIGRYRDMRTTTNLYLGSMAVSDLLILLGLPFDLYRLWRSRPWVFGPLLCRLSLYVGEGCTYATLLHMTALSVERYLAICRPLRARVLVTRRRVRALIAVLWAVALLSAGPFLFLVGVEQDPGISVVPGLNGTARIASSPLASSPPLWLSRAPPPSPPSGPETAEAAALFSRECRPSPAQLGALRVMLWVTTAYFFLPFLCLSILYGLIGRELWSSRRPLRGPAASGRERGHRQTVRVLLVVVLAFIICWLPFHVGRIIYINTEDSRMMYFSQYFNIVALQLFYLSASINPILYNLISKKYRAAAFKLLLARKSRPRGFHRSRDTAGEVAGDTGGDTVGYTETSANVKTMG
row,inhibition at 10 µM [%],Structure (SMILES)
1,23,"CN(C)CCCNC(=O)[C@@H]1CCC(=O)N(C)CC(=O)N2C[C@@H](NC(=O)Cc3cccc4ccccc34)C[C@H]2COc2ccc(F)cc2C(=O)N1C [Ex. 488, (2S,11S,19aS)-N-[3-(dimethylamino)propyl]-15-fluoro-7,12-dimethyl-2-{[2-(1-naphthyl)acetyl]amino}-5,8,13-trioxo-2,3,6,7,8,9,10,11,12,13,19,19a-dodecahydro-1H,5H-pyrrolo[2,1-c] [1,4,7,12] benzoxatriazacyclopentadecine-11-carboxamide]"
2,47,"CC(=O)NCCNC(=O)[C@@H]1CCC(=O)N(C)CC(=O)N2C[C@@H](NC(=O)Cc3cccc4ccccc34)C[C@H]2COc2ccc(F)cc2C(=O)N1C [Ex. 487, (2S,11S,19aS)-N-[2-(acetylamino)ethyl]-15-fluoro-7,12-dimethyl-2-{[2-(1-naphthyl)acetyl]amino}-5,8,13-trioxo-2,3,6,7,8,9,10,11,12,13,19,19a-dodecahydro-1H,5H-pyrrolo[2,1-c] [1,4,7,12]benzoxatri-azacyclopentadecine-11-carboxamide]"
3,26,"CN(C)CCNC(=O)[C@@H]1CCC(=O)N(C)CC(=O)N2C[C@@H](NC(=O)Cc3cccc(C(F)(F)F)c3)C[C@H]2COc2ccc(F)cc2C(=O)N1C [Ex. 495, (2S,11S,19aS)-N-[2-(dimethylamino)ethyl]-15-fluoro-7,12-dimethyl-5,8,13-trioxo-2-({2-[3-(trifluoromethyl)phenyl]acetyl}amino)-2,3,6,7,8,9,10,11,12,13,19,19a-dodecahydro-1H,5H-pyrrolo[2,1-c] [1,4,7,12] benzoxatriazacyclopentadecine-11-carboxamide]"

# From US9512139B2, “Conformationally constrained, fully synthetic macrocyclic compounds” (POLYPHOR AG, priority 2009, dated 2016)
